The IC50 is the point on the concentration scale where inhibition reaches its midpoint. Read a high IC50 as a need for much substance.

Chain of p110α (P42336 whole entry): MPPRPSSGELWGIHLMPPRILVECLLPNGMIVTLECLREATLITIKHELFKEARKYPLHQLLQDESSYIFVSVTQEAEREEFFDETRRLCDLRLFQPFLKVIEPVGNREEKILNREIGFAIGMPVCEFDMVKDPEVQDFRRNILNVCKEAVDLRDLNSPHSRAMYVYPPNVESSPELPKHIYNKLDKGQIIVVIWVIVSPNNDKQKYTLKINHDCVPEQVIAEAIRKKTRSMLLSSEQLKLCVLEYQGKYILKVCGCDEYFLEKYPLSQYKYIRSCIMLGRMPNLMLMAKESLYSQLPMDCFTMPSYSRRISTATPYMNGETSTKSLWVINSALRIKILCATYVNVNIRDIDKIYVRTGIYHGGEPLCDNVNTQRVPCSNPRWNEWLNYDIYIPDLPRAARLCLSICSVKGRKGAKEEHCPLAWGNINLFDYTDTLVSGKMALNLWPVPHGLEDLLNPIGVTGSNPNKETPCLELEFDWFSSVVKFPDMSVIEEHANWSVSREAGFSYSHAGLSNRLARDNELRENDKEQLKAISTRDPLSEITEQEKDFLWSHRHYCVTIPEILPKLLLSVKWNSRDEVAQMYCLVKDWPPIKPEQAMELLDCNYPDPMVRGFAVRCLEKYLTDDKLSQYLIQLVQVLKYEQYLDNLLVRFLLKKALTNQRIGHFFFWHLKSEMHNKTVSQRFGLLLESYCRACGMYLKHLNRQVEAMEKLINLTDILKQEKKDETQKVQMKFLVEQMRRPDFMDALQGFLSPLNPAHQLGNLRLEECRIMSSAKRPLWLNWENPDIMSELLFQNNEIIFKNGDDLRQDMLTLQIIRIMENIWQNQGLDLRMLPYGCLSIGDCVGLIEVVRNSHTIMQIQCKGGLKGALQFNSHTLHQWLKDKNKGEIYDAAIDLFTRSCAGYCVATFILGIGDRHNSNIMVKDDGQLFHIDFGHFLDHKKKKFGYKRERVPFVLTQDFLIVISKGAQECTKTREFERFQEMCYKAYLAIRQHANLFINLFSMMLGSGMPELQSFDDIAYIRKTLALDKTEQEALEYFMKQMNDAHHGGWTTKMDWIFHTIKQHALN
Chain of p110α (P27986 whole entry partner): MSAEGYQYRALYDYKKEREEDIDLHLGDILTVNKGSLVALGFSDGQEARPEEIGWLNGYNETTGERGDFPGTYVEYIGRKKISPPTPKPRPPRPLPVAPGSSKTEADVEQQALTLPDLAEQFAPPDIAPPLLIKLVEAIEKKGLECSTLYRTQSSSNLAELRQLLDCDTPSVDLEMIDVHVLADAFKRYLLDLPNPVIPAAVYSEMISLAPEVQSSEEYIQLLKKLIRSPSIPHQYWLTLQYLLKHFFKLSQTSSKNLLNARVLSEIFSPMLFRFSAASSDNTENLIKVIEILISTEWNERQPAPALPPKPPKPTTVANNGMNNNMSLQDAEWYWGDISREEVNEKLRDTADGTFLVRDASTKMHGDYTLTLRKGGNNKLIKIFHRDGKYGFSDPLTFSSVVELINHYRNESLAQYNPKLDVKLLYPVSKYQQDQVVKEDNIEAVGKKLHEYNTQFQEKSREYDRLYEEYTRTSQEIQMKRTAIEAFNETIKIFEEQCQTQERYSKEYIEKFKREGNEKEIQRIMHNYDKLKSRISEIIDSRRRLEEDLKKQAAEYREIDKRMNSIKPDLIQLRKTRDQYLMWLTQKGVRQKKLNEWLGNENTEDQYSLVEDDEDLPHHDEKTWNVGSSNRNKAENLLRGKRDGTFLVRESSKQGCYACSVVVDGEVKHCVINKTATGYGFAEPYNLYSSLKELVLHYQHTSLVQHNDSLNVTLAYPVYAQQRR

This experiment addresses p110α (Homo sapiens (Human), UniProt P42336). In words: PI3K lipid kinase activity on lipid micelles (ADP-Glo), p110α. It counts as biochemical. To be noted: 10 μM ATP. The method, then:
a) Some compounds of formula (I) described herein were assayed in vitro for their ability to inhibit the lipid kinase activity of PI3Ks, by using a non-radioactive method.
In details, His and GST-tagged recombinant proteins (purchased from JenaBioscience—Germany; PI3Kα #PR-335, PI3Kβ #PR-344, PI3Kγ #PR-343, PI3Kδ #PR-345) for each isoform PI3Kα, β, γ and δ, were incubated with 10 μM of ATP, with lipid micells containg the appropriate substrate phosphatidylinositol and the phosphatidilserine, and different concentrations of the formula (I) compounds.
After 30 minutes of incubation at room temperature, the amount of ADP produced from ATP following the activation of kinase was measured with a luminescent kinase assay, ADP-Glo™ Kinase Assay (purchased from Promega—USA #V9101).
The luminescent signal positively correlates with the formed ADP and, therefore, with the kinase activity.
Inhibition of PI3K lipid kinase activity is achieved when the amount of ADP—that is correlated with the PI3K activity—in the presence of the assayed compound of formula (I) is lower than the amount detected in the control samples.
For each assayed formula (I) compound, a specific IC50 for each class I PI3K isoform was measured.
The IC50 of a formula (I) compound is the concentration of the compound able to inhibit by 50% the kinase activity of each PI3K isoform.
The IC50 was determined by constructing a dose-response curve and examining the inhibitory effect of different concentrations of the assayed formula (I) compounds on the ADP production.
To evaluate the ability of each compound of formula (I) to inhibit the lipid kinase activity of each PI3K isoform, PI3Kα, β, γ and δ recombinant proteins (30 ng for each assay) were incubated for about 30 minutes with different concentrations of compounds.
Lipid micelles were formed by sonicating a mixture of 1 mg of phosphatidylinositol and 1 mg of phosphatidylserine. Lipid micelles were use as substrate for the PI3K lipid kinase activity. The reaction was started by adding 10 μM of ATP and 10 μM of micelles to each reaction.
After 30 minutes of incubation at room temperature, the reaction was stopped and the amount of ADP produced was measured by using the ADP-glo assay (see above).
(In general: ADP-Glo turns the ADP formed in a reaction into a luminescent signal.)
`O=C(O)c1cccc(Cn2cc(-c3cccc4c(=O)cc(N5CCOCC5)[nH]c34)nn2)c1` [CL27e, 3-((4-(2-morpholino-4-oxo-1,4-dihydroquinolin-8-yl)-1H-1,2,3-triazol-1-yl)methyl)benzoic acid] showed an IC50 of 0.02 µM.

`O=c1cc(N2CCOCC2)[nH]c2c(-c3cn(-c4ccccc4O)nn3)cccc12` [TP714, 8-(1-(2-hydroxyphenyl)-1H-1,2,3-triazol-4-yl)-2-morpholinoquinolin-4(1H)-one] gave an IC50 of 0.26 µM.

`Cc1cc(F)ccc1Oc1cccc2c(=O)cc(N3CCOCC3)[nH]c12` [TGX155, reference compound]: the 50% inhibitory concentration (IC50) was > 20 µM.

Consider `O=C(O)CCCn1cc(-c2cccc3c(=O)cc(N4CCOCC4)[nH]c23)nn1` [CL55a, 4-(4-(2-morpholino-4-oxo-1,4-dihydroquinolin-8-yl)-1H-1,2,3-triazol-1-yl)butanoic acid], for which the concentration for half-maximal inhibition (IC50) amounted to 0.1 µM.

Take `O=C(NCc1ccccc1)c1cccc(Cn2cc(-c3cccc4c(=O)cc(N5CCOCC5)[nH]c34)nn2)c1` [CL129a, N-benzyl-3-((4-(2-morpholino-4-oxo-1,4-dihydroquinolin-8-yl)-1H-1,2,3-triazol-1-yl)methyl) benzamide]: the midpoint of inhibition, the IC50, lay at 0.14 µM.

Turning to `N#CCc1ccc(-n2cc(-c3cccc4c(=O)cc(N5CCOCC5)[nH]c34)nn2)cc1` [CL12, 2-(4-(4-(2-morpholino-4-oxo-1,4-dihydroquinolin-8-yl)-1H-1,2,3-triazol-1-yl)phenyl) acetonitrile], it took 0.1 µM to reach half-maximal inhibition (IC50).

In the case of `O=c1cc(N2CCOCC2)[nH]c2c(-c3cn(Cc4ccccc4)nn3)cccc12` [CL5, 8-(1-benzyl-1H-1,2,3-triazol-4-yl)-2-morpholinoquinolin-4(1H)-one], it took 0.26 µM to reach half-maximal inhibition (IC50).

`O=C(O)CCCCn1cc(-c2cccc3c(=O)cc(N4CCOCC4)[nH]c23)nn1` [CL64a, 5-(4-(2-morpholino-4-oxo-1,4-dihydroquinolin-8-yl)-1H-1,2,3-triazol-1-yl)pentanoic acid]: the IC50 is 0.1 µM.

`O=C(O)c1ccc(-n2cc(-c3cccc4c(=O)cc(N5CCOCC5)[nH]c34)nn2)cc1` [CL29a, 4-(4-(2-morpholino-4-oxo-1,4-dihydroquinolin-8-yl)-1H-1,2,3-triazol-1-yl)benzoic acid] returned an IC50 of 0.32 µM.

For the molecule `O=c1cc(N2CCOCC2)[nH]c2c(-c3cn(-c4ccccc4)nn3)cccc12` [CL1, 2-morpholino-8-(1-phenyl-1h-1,2,3-triazol-4-yl)quinolin-4(1H)-one], the IC50 was 0.73 µM.

With `O=C(O)c1cccc(-n2cc(-c3cccc4c(=O)cc(N5CCOCC5)[nH]c34)nn2)c1` [CL55b, 3-(4-(2-morpholino-4-oxo-1,4-dihydroquinolin-8-yl)-1H-1,2,3-triazol-1-yl)benzoic acid], the IC50 amounted to 0.1 µM.

Source of the values: patent US8841288B2, “Quinolin-4 (1H)-one derivatives as inhibitors of phosphatidylinositol 3-kinases” (Universtà Degli Studi di Torino, priority 2010, dated 2014).
